In experiment [1] the test system is MIA-PACA-2 cells. The experiment is described as follows: Cell proliferation assay, MIA-PACA-2 cells (Cell-titer Glo). Type of experiment: cell-based. As to conditions: Homo sapiens; inhibiting MIA-PACA-2 cells, 96-well ultra-low adsorption plate, 96 h incubation, Cell-titer Glo luminescence. On the procedure: (§1) Pave the MIA-PACA-2 cells into a 96-well ultra-low adsorption plate at 600 cells, 160 μL/well. After incubating overnight, compound solutions of gradient concentration was prepared, and added 40 μL of DMSO solution of the test compound of each concentration to the cells of each well. The final concentration of the compound is 10000, 2000, 400, 80, 16, 3.2, 0.64, 0.12, 0.025, 0 nM (the final concentration of DMSO is 0.25%). Incubated for 96 h at 37° C. and 5% CO2. 50 μL of Cell-titer Glo working solution was added to each well, shaked and mixed, and incubated at room temperature for 10 minutes. The multi-functional microplate reader read the luminescence value, and converted the luminescence value reading into inhibition percentage.
(§2) Inhibition percentage=(maximum value−reading)/(maximum value−minimum value)*100.
(§3) The “maximum value” was the DMSO control, the “minimum value” indicates the cell-free control group.
(§4) Graphpad Prism software was used to perform curve fitting and obtain IC50 value.
Refer to Table 2 for the IC50 data of some compounds in the examples inhibiting MIA-PACA-2 cells.

Experiment [2] deals with H358 cells. The experiment is described as follows: Cell proliferation assay, H358 cells (Cell-titer Glo). Type of experiment: cell-based. As to conditions: Homo sapiens, NCI-H358; inhibiting H358 cells, 96-well ultra-low adsorption plate, 96 h incubation, Cell-titer Glo luminescence. How it is done:
as §1, with “the H358” for “the MIA-PACA-2”, “cells on” for “cells into”, “plate with 2000 cells and 190” for “plate at 600 cells, 160”, “added 10” for “added 40”, “10000, 3333.3, 1111.1, 370.4, 123.5, 41.2, 13.7, 4.6, 1.5,” for “10000, 2000, 400, 80, 16, 3.2, 0.64, 0.12, 0.025,”
as §2, §3, §4
Refer to table 3 for the IC50 data of some compounds in the Examples for inhibiting H358 cells.

Molecules are shown by their SMILES.

These results are taken from patent publication US20230062486A1, “KRAS G12C INHIBITOR AND PHARMACEUTICAL USE THEREOF” (Betta Pharmaceuticals Co., LTD, priority 2019, published 2023).

Broadly, the IC50 is the concentration at which inhibition is half-maximal. For `C=CC(=O)N1CCn2c(cnc2-c2cc(F)c(-c3c(F)ccc(Cl)c3O)c(Cl)c2)C1` [Example 9, 1-(3-(2,3′-dichloro-6,6′-difluoro-2′-hydroxy-[1,1′-biphenyl]-4-yl)-5,6-dihydroimidazo[1,5-a]pyrazin-7(8H)-yl)prop-2-en-1-one], in experiment [1], the IC50 lay in the range of 1 to 10 µM.

With `C=CC(=O)N1CCn2c(nc(C(F)(F)F)c2-c2cc(F)c(-c3c(F)ccc(Cl)c3O)c(Cl)c2)C1` [Example 18, 1-(3-(2,3′-dichloro-6,6′-difluoro-2′-hydroxy-[1,1′-biphenyl]-4-yl)-2-(trifluoromethyl)-5,6-dihydroimidazo[1,2-a]pyrazin-7(8H)-yl)prop-2-en-1-one], in experiment [1], the IC50 was > 10 µM.

On to `C=CC(=O)N1CCn2c(-c3cc(F)c(-c4c(F)ccc(Cl)c4O)c(Cl)c3)cnc2C1` [Example 15, 1-(3-(2,3′-dichloro-6,6′-difluoro-2′-hydroxy-[1,1′-biphenyl]-4-yl)-5,6-dihydroimidazo[1,2-a]pyrazin-7(8H)-yl)prop-2-en-1-one], for which the IC50 in experiment [1] is > 10 µM.

Regarding `C=CC(=O)N1CCn2c(cnc2-c2cc(F)c(-c3c(O)c(Cl)cc(Cl)c3F)c(Cl)c2)C1` [Example 10, 1-(3-(2,3′,5′-trichloro-2′,6-difluoro-6′-hydroxy-[1,1′-biphenyl]-4-yl)-5,6-dihydroimidazo[1,5-a]pyrazin-7(8H)-yl)prop-2-en-1-one], in experiment [1], the IC50 is > 10 µM.

Consider `C=CC(=O)N1CCn2c(nc(-c3ccccc3C(C)C)c2-c2cc(F)c(-c3c(O)cccc3F)c(Cl)c2)C1` [Example 12, 1-(3-(2-chloro-2′,6-difluoro-6′-hydroxy-[1,1′-biphenyl]-4-yl)-2-(2-isopropylphenyl)-5,6-dihydroimidazo[1,2-a]pyrazin-7(8H)-yl)prop-2-en-1-one], for which the IC50 in experiment [1] was > 10 µM.

In experiment [1], `C=CC(=O)N1CCn2c(nc(-c3ccccc3C(C)C)c2-c2cc(F)c(-c3c(O)c(Cl)cc(Cl)c3F)c(Cl)c2)C1` [Example 14, 1-(2-(2-isopropylphenyl)-3-(2,3′,5′-trichloro-2′,6-difluoro-6′-hydroxy-[1,1′-biphenyl]-4-yl)-5,6-dihydroimidazo[1,2-a]pyrazin-7(8H)-yl)prop-2-en-1-one] showed an IC50 of 1 to 10 µM.

In the case of `C=CC(=O)N1CCn2c(cnc2-c2cc(F)c(-c3c(O)cccc3F)c(Cl)c2)C1` [Example 8, 1-(3-(2-chloro-2′,6-difluoro-6′-hydroxy-[1,1′-biphenyl]-4-yl)-5,6-dihydroimidazo[1,5-a]pyrazin-7(8H)-yl)prop-2-en-1-one], the IC50 in experiment [1] and in experiment [2] was 1 to 10 µM throughout.

On to `C=CC(=O)N1CCn2c(nnc2-c2cc(Cl)c(-c3c(O)cccc3F)c(OCC(F)(F)F)c2)C1` [Example 17, 1-(3-(2-chloro-2′-fluoro-6′-hydroxy-6-(2,2,2-trifluoroethoxy)-[1,1′-biphenyl]-4-yl)-5,6-dihydro-[1,2,4]triazolo[4,3-a]pyrazin-7(8H)-yl)prop-2-en-1-one], for which the IC50 in experiment [1] was ≤ 1 µM.

In the case of `C=CC(=O)N1CCn2c(nnc2-c2cc(F)c(-c3c(F)ccc(Cl)c3N)c(Cl)c2)C1` [Example 7, 1-(3-(2′-amino-2,3′-dichloro-6,6′-difluoro-[1,1′-biphenyl]-4-yl)-5,6-dihydro-[1,2,4]triazolo[4,3-a]pyrazin-7(8H)-yl)prop-2-en-1-one], the IC50 in experiment [1] and in experiment [2] was > 10 µM in each case.

On to `C=CC(=O)N1CCn2c(-c3cc(F)c(-c4c(O)cccc4F)c(Cl)c3)cnc2C1` [Example 6, 1-(3-(2-chloro-2′,6-difluoro-6′-hydroxy-[1,1′-biphenyl]-4-yl)-5,6-dihydroimidazo[1,2-a]pyrazin-7(8H)-yl)prop-2-en-1-one], for which the IC50 was ≤ 1 µM in experiment [1] and 1 to 10 µM in experiment [2].

For the compound `C=CC(=O)N1CCn2c(nnc2-c2cc(F)c(-c3c(C)ccc4[nH]ncc34)c(Cl)c2)C1` [Example 5, 1-(3-(3-chloro-5-fluoro-4-(5-methyl-1H-indazol-4-yl)phenyl)-5,6-dihydro-[1,2,4]triazolo[4,3-a]pyrazin-7(8H)-yl)prop-2-en-1-one], the IC50 in experiment [1] and in experiment [2] was 1 to 10 µM in each case.

Take `C=C(F)C(=O)N1CCn2c(nnc2-c2cc(F)c(-c3c(O)cccc3F)c(Cl)c2)C1` [Example 4, 1-(3-(2-chloro-2′,6-difluoro-6′-hydroxy-[1,1′-biphenyl]-4-yl)-5,6-dihydro-[1,2,4]triazolo[4,3-a]pyrazin-7(8H)-yl)-2-fluoroprop-2-en-1-one]: the IC50 in experiment [1] and in experiment [2] was > 10 µM in each case.

On to `C=CC(=O)N1CCn2c(nnc2-c2cc(F)c(-c3c(O)ccc(Cl)c3F)c(Cl)c2)C1` [Example 2, 1-(3-(2,3′-dichloro-2′,6-difluoro-6′-hydroxy-[1,1′-biphenyl]-4-yl)-5,6-dihydro-[1,2,4]triazolo[4,3-a]pyrazin-7(8H)-yl)prop-2-en-1-one], for which the IC50 in experiment [1] and in experiment [2] was ≤ 1 µM throughout.

In the case of `C=CC(=O)N1CCn2c(nc(-c3ccccc3C(C)C)c2-c2cc(F)c(-c3c(F)ccc(Cl)c3O)c(Cl)c2)C1` [Example 13, 1-(3-(2,3′-dichloro-6,6′-difluoro-2′-hydroxy-[1,1′-biphenyl]-4-yl)-2-(2-isopropylphenyl)-5,6-dihydroimidazo[1,2-a]pyrazin-7(8H)-yl)prop-2-en-1-one], in experiment [1], the IC50 is ≤ 1 µM.

As for `C=CC(=O)N1CCn2c(nnc2-c2cc(F)c(-c3c(O)cccc3F)c(C=C)c2)C1` [Example 11, 1-(3-(2,2′-difluoro-6′-hydroxy-6-vinyl-[1,1′-biphenyl]-4-yl)-5,6-dihydro-[1,2,4]triazolo[4,3-a]pyrazin-7(8H)-yl)prop-2-en-1-one], the IC50 in experiment [1] was > 10 µM.

In the case of `C=CC(=O)N1CCn2c(nnc2-c2cc(F)c(-c3c(O)c(Cl)cc(Cl)c3F)c(Cl)c2)C1` [Example 3, 1-(3-(2,3′,5′-trichloro-2′,6-difluoro-6′-hydroxy-[1,1′-biphenyl]-4-yl)-5,6-dihydro-[1,2,4]triazolo[4,3-a]pyrazin-7(8H)-yl)prop-2-en-1-one], the IC50 in experiment [1] and in experiment [2] was ≤ 1 µM each time.

In turn, `C=CC(=O)N1CCn2c(nnc2-c2cc(Cl)c(-c3c(F)ccc(Cl)c3O)c(OCC(F)(F)F)c2)C1` [Example 16, 1-(3-(2,3′-dichloro-6′-fluoro-2′-hydroxy-6-(2,2,2-trifluoroethoxy)-[1,1′-biphenyl]-4-yl)-5,6-dihydro-[1,2,4]triazolo[4,3-a]pyrazin-7(8H)-yl)prop-2-en-1-one] came in with an IC50 in experiment [1] of 1 to 10 µM.

`C=CC(=O)N1CCn2c(nnc2-c2cc(F)c(-c3c(O)cccc3F)c(Cl)c2)C1` [Example 1, 1-(3-(2-chloro-2′,6-difluoro-6′-hydroxy-[1,1′-biphenyl]-4-yl)-5,6-dihydro-[1,2,4]triazolo[4,3-a]pyrazin-7(8H)-yl)prop-2-en-1-one]: the IC50 in experiment [1] and in experiment [2] was 1 to 10 µM in each case.
